This experiment deals with T1, human CaSR (Homo sapiens, UniProt P41180).
T1 construct: The ORF coding for the human CaSR (genebank: NM_000388)
T1 sequence (P41180 20-1078): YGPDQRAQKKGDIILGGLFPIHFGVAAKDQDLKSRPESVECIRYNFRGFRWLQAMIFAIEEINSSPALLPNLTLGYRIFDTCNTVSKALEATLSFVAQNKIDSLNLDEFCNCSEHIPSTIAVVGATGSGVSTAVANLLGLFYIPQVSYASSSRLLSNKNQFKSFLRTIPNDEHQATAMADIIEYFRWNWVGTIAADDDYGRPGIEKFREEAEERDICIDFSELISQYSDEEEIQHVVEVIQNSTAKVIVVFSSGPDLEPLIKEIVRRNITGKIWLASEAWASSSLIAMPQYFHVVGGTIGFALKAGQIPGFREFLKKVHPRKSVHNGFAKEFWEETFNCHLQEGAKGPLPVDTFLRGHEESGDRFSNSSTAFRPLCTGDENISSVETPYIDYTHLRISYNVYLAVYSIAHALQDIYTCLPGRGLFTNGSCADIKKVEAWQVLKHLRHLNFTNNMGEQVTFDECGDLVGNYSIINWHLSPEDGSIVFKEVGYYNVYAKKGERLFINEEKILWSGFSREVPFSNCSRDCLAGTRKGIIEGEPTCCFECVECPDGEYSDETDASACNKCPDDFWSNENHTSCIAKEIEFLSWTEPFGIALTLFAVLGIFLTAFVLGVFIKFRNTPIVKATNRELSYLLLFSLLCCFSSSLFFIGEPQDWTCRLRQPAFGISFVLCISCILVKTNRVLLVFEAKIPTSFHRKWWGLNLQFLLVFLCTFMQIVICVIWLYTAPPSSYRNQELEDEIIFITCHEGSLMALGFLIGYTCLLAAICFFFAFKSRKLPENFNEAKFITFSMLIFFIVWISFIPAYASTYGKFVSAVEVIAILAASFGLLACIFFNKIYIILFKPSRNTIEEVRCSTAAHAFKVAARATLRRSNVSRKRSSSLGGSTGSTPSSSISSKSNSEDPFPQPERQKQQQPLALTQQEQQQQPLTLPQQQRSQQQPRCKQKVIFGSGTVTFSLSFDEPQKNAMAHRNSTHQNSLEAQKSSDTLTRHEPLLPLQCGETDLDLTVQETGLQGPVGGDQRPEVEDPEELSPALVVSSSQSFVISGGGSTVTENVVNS
Put plainly: Functional whole cell assay (modulation of human CaSR), IP1 accumulation in CHO-K1 cells. Format: cell-based. As to conditions: CHO-K1 cells stably expressing human CaSR, final Ca2+ 1.9 mM, IP1 readout; concentration giving 50% of maximum agonistic response. The text has this: The assay investigates a compound's functional ability to act as a biological positive modulator on the human CaSR. Activation of the receptor expressed on CHO-K1 cells is detected through the G alpha q pathway, the activation of phospholipase C and the accumulation of intracellular inositol phosphate (IP) as described earlier [Sandrine Ferry, Bruno Chatel, Robert H. Dodd, Christine Lair, Danielle Gully, Jean-Pierre Maffrand, and Martial Ruat. Effects of Divalent Cations and of a Calcimimetic on Adrenocorticotropic Hormone Release in Pituitary Tumor Cells. Biochemical and biophysical research Communications 238, 866-873 (1997)]. The human CaSR is stably expressed on a CHO-K1 cell clone, stimulated with a basal level of calcium and challenged with the tested compound. The level of IP1 is determined using the IP-One Terbium htrf kit (Cisbio, France). CHO-K1 cells not transfected with the CaSR fail to elicit an IP1 response upon calcium and/or compound stimulation.
The ORF coding for the human CaSR (genebank: NM_000388) was acquired from Invitrogen Corp, USA and subsequently cloned into the mammalian expression vector pCDA3.1.
CHO-K1 cells were transfected using Lipofectamine according to manufacturer's protocol (400.000 cells/well were seeded in a 6-well plate and transfected after 24 hours using 2 μg DNA and 5 μl lipofectamine). After another 24 hours the cells were detached, seeded and subjected to 1 mg/ml of G-418. Following 7 days growth single clones were picked, the CaSR expression evaluated using the 5C10 antibody against CaSR, the clones with the highest expression were selected and tested for functional response. The preferred clone was cultured according to standard procedures described in ATCC (American Type Culture Collection) protocols for CHO-K1 with the addition of 500 μg/ml G-418.
On the assay day, cells were thawed, harvested and resuspended to 4*10^6 cells/ml in stimulation buffer (containing: Hepes 10 mM, MgCl2 0.5 mM, KCl 4.2 mM, NaCl 146 mM, glucose 5.5 mM, LiCl 50 mM, BSA 0.5% at pH 7.4). Ten μl cell solution was pipetted into wells of a white 384-well plate (Perkin Elmer Optiplate) containing 2 μl compound diluted in assay buffer (containing: Hepes 10 mM, MgCl2 0.5 mM, KCl 4.2 mM, NaCl 146 mM, glucose 5.5 mM, LiCl 50 mM, CaCl2 11.4 mM at pH 7.4), resulting in a final Ca^2+ concentration of 1.9 mM. After compound stimulation for 1 hour at 37° C. and 15 min at room temperature, 10 ul of IP-One assay detection reagent (prepared as described by the IP-One assay kit manufacturer) was added and the plate was incubated for another 1 hour at room temperature. Finally the plate was read using a Perkin Elmer EnVision, according to the protocol supplied by the IP-One assay kit manufacturer. The FRET ratio was calculated by dividing the 665 nm emission signal with that of the 615 nm.
The molar concentration of a compound that produces 50% of the maximum agonistic response (the […] value) is calculated according to the equation “General sigmoidal curve with Hill slope, a to d” (Equation 1). This model describes a sigmoidal curve with an adjustable baseline. The equation can be used to fit curves where response is either increasing or decreasing with respect to the independent variable, X.
y=(a−d)/(1+(x/c)̂b)+d Equation 1.
x=concentration of tested compound y=response (%) a=min response as compound concentration approaches 0 d=max response as concentration of tested compound is increasing c=IC50 for the curve b=Hill coefficient or curve slope
`C[C@@H](N[C@H]1CC[C@@H](c2ccc(NCCNCCO)nc2)C1)c1cccc2ccccc12.O=CO.O=CO.O=CO` [Compound 101, 2-[2-[[5-[(1R,3S)-3-[[(1R)-1-(1-Naphthyl)ethyl]amino]cyclopentyl]-2-pyridyl]amino]ethylamino]ethanol]: the EC50 is below 200 nM.

`COc1cc([C@@H](C)N[C@H]2CC[C@@H](c3ccc(NC4CCNCC4)nc3)C2)ccc1F` [Compound 107, 5-[(1R,3S)-3-[[(1R)-1-(4-Fluoro-3-methoxy-phenyl)ethyl]amino]cyclopentyl]-N-(4-piperidyl)pyridin-2-amine] gave an EC50 below 200 nM.

For `COc1cc([C@@H](C)N[C@H]2CC[C@@H](c3ccc(N4CCNC(=O)C4)nc3)C2)ccc1F` [Compound 109, 4-[5-[(1R,3S)-3-[[(1R)-1-(4-Fluoro-3-methoxy-phenyl)ethyl]amino]cyclopentyl]-2-pyridyl]piperazin-2-one], the EC50 is below 200 nM.

Consider `COc1cc([C@@H](C)N[C@H]2CC[C@@H](c3ccc(NCCS(N)(=O)=O)nc3)C2)ccc1F` [Compound 113, 2-[[5-[(1R,3S)-3-[[(1R)-1-(4-Fluoro-3-methoxyphenyl)ethyl]amino]cyclopentyl]-2-pyridyl]amino]ethanesulfonamide], for which the 50% effective concentration (EC50) is below 200 nM.

Molecule `COc1cc([C@@H](C)N[C@H]2CC[C@@H](c3ccc(NCC(O)CO)nc3)C2)ccc1F` (stereo partly drawn) [Compound 115, 3-[[5-[(1R,3S)-3-[[(1R)-1-(4-Fluoro-3-methoxyphenyl)ethyl]amino]cyclopentyl]-2-pyridyl]amino]propane-1,2-diol] showed an EC50 of 200 to 1000 nM.

As to `COc1cc([C@@H](C)N[C@H]2CC[C@@H](c3ccc(N4CCN(C(C)=O)CC4)nc3)C2)ccc1F` [Compound 116, 1-[4-[5-[(1R,3S)-3-[[(1R)-1-(4-Fluoro-3-methoxyphenyl)ethyl]amino]cyclopentyl]-2-pyridyl]piperazin-1-yl]ethanone], the EC50 is below 200 nM.

As to `COc1cc([C@@H](C)N[C@H]2CC[C@@H](c3cnc(N4CCNC(=O)C4)nc3)C2)ccc1F` [Compound 126, 4-[5-[(1R,3S)-3-[[(1R)-1-(4-Fluoro-3-methoxy-phenyl)ethyl]amino]cyclopentyl]pyrimidin-2-yl]piperazin-2-one], the EC50 was below 200 nM.

Turning to `COc1cc([C@@H](C)N[C@H]2CC[C@@H](c3cnc(N4CCN(C(C)=O)CC4)nc3)C2)ccc1F.O=CO` [Compound 127, 1-[4-[5-[(1R,3S)-3-[[(1R)-1-(4-Fluoro-3-methoxy-phenyl)ethyl]amino]cyclopentyl]pyrimidin-2-yl]piperazin-1-yl]ethanone], the EC50 fell in the range of 200 to 1000 nM.

As usually defined, the EC50 is the concentration that produces a half-maximal response. A lower EC50 goes with an effect from little substance.

The record behind these values is patent publication US20130267516A1, “SUBSTITUTED CYCLOPENTYL-AZINES AS CASR-ACTIVE COMPOUNDS” (LEO PHARMA A/S, priority 2010, published 2013).
